Data taken from paper PMC7993833, “EDP-938, a novel nucleoprotein inhibitor of respiratory syncytial virus, demonstrates potent antiviral activities in vitro and in a non-human primate model” (PLoS Pathogens, 2021).
Entries after “also recorded” stand apart in the source; their conditions may differ.

How the values were obtained:
[1] = system: RSV-B VR-955; test: RT-qPCR assay, RSV-B VR-955 in primary HBECs; type: cell-based; settings: human respiratory syncytial virus, primary HBEC
[2] = system: RSV-A and RSV-B laboratory strains; test: RT-qPCR assay, RSV laboratory strains across primate cell lines; type: cell-based; settings: human respiratory syncytial virus, in Primates, read-out: EC50 values, reduction in viral load by RT-qPCR (range over strains and cells)
Experimental: (§1) The activity of EDP-938 against both RSV-A and RSV-B was evaluated in vitro against multiple laboratory strains commonly used for antiviral screens in HEp-2 cells, human adenocarcinomic alveolar basal epithelial cells (A549), monkey kidney-derived cells (Vero), and Baby Hamster Kidney cells (BHK). Serial dilutions of the compound were added to cells infected with RSV-A at a MOI of 0.1 or RSV-B at an MOI of 0.5 and treated for 5 or 6 days, respectively.
(§2) HEp-2, Vero, and BHK were seeded at 8,000 cells per well (cpw) in growth medium (Dulbecco’s Modified Eagle Medium (DMEM) with 1% GlutaMAX, 1% Penicillin/Streptomycin (P/S), 1% Non-Essential Amino Acids (NEAA), 10% Fetal Bovine Serum (FBS)) or (Minimum Essential Medium (MEM) with 10% FBS, 1% NEAA, 1% P/S) or (Eagle’s Minimum Essential Medium with L-Glutamine, with 10% FBS, 1% P/S) respectively. A549 seeded at 3,000 cpw in F-12K Kaighn’s Modification nutrient mixture with 10% FBS, 1% NEAA, 1% P/S. Cells seeded at time of infection in 96-well plates, final well volume 100μL. Compounds suspended in DMSO, serially diluted and added to wells at 0.5% final DMSO concentration. […] Cytopathic effect (CPE) determined using ATPlite (Perkin Elmer) measured with Envision luminometer. […] All EC50s were calculated using the XLFit four-parameter logistic model 200 in Microsoft Excel.

[3] = system: RSV; test: Single-round synchronized infection time-of-addition, RT-qPCR endpoint; type: cell-based, respiratory syncytial virus; settings: HEp-2; MOI 3; cold-synchronized; 2x or 20x EC50; added 0-8 hpi; RT-qPCR at 24 hpi
Experimental: In order to help determine which step of the viral life cycle EDP-938 blocks multiple in vitro time-of-addition studies were performed. In the first study, EDP-938 was administered to cells infected with RSV-A Long at a MOI of 0.1 at 2 hours pre-infection (-2) or 2, 6, or 24 hours post-infection (hpi), and viral CPE evaluated 5 days later. […] A second time-of-addition study explored the ability of EDP-938 to protect not just a population experiencing a spreading infection, but individual cells already infected with RSV. Using a MOI of 3, which infects approximately 95% of all cells, virus was cold-adsorbed to the cells for 1 hour to synchronize infection before transfer to 37°C to induce fusion (marking the 0 hpi time point). Compound was added at times indicated and a 24 hpi RT-qPCR endpoint was employed to constrain viral replication cycle to a single complete cycle.
For single round infection synchronized infection 25,000 HEp-2 cpw seeded 1-day pre-infection. Plates brought to 4°C, viral infection at 3 MOI calculated for 30,000 cpw incubated at 4°C 1hr. Compound added to 0h plate and plates moved to 37°C. Compound added at 2h, 4h, 6h, and 8h post-incubation (when plates moved to 37°C) to appropriate plates. 24 hpi viral copies measured with RT-qPCR as described above.

[4] = system: RSV-A2; test: CPE assay, RSV-A2 in HEp-2 cells; type: cell-based; settings: human respiratory syncytial virus
Experimental: HEp-2, Vero, and BHK were seeded at 8,000 cells per well (cpw) in growth medium (Dulbecco’s Modified Eagle Medium (DMEM) with 1% GlutaMAX, 1% Penicillin/Streptomycin (P/S), 1% Non-Essential Amino Acids (NEAA), 10% Fetal Bovine Serum (FBS)) or (Minimum Essential Medium (MEM) with 10% FBS, 1% NEAA, 1% P/S) or (Eagle’s Minimum Essential Medium with L-Glutamine, with 10% FBS, 1% P/S) respectively. A549 seeded at 3,000 cpw in F-12K Kaighn’s Modification nutrient mixture with 10% FBS, 1% NEAA, 1% P/S. Cells seeded at time of infection in 96-well plates, final well volume 100μL. Compounds suspended in DMSO, serially diluted and added to wells at 0.5% final DMSO concentration. Viral stocks stabilized with 25% sucrose, previously titered using plaque assay, were added at desired MOI. Sucrose added to cells-only control wells to match percent added with virus. Unless otherwise noted, RSV-A strains were tested at 0.1 MOI and incubated for 5 days in a 37°C, 5% CO2 humidified incubator, and RSV-B at 0.5 MOI for 6 days. Cytopathic effect (CPE) determined using ATPlite (Perkin Elmer) measured with Envision luminometer. For RT-qPCR, RNA was extracted from whole well using Ambion RNAqueous-96 Automated Kit, and RT-qPCR run using Applied Biosystems TaqMan RNA-to-CT 1-Step Kit. […] All EC50s were calculated using the XLFit four-parameter logistic model 200 in Microsoft Excel.

[5] = system: RSV-A Long; test: In vitro combination study (CPE, Loewe additivity, CalcuSyn); type: cell-based, respiratory syncytial virus
Experimental: The combination effect of EDP-938 with other RSV inhibitors of different mechanisms/targets was investigated in vitro. RSV-A Long infected HEp-2 cells were treated with various concentrations of EDP-938 either alone or in combination with the fusion inhibitor GS-5806, non-nucleoside L polymerase inhibitor AZ-27, nucleoside inhibitor ALS-8112 [38], ribavirin, or palivizumab. The combination of two compounds always led to a greater inhibition than a single agent alone.
To determine whether the effect of the combination was synergistic, additive or antagonistic, the data were analyzed by the Loewe additivity model using Calcusyn software, which gave a Combination Index (CI) value at various effective concentrations of the compounds. […] As an experimental control, adding EDP-938 to itself was additive. For details see S4 Table.
As described above with 8,000 HEp-2 cpw, 0.1 MOI RSV-A Long, 5-day endpoint, and CPE readout. Compounds added in serial 1.3-fold 6-point dilutions across both X- and Y-axes of plate. Plates run in quadruplicate with one uninfected plate for cytotoxicity. Combination indexes calculated using Loewe additivity model using CalcuSyn software from Biosoft.

[6] = system: RSV-A and RSV-B laboratory strains; test: CPE assay, RSV laboratory strains across primate cell lines; type: cell-based; settings: human respiratory syncytial virus, in Primates, read-out: EC50 values, inhibition of CPE (range over strains and cells)
Experimental: as §1, §2

[7] = system: RSV-A Long; test: RT-qPCR viral load assay, RSV-A Long in HEp-2 cells; type: cell-based; settings: human respiratory syncytial virus, HEp-2, RT-qPCR
[8] = system: HEp-2 cells; test: Cytotoxicity (ATPlite) in HEp-2 cells; type: cell-based, human; settings: at up to 50 μM, 3 days
Experimental: HEp-2, A549, and CHO cells were seeded at 3,000 cpw in their respective growth medium. CHO growth medium used was RPMI medium 1640 with 10% FBS, 1% P/S, 1% GlutaMAX. HEK-293 cells seeded at 10,000 cpw in DMEM growth medium. Undifferentiated HBECs were seeded in collagen-coated 96-well plates at 7,500 cpw in appropriate growth medium. Compound added and incubated for 3 days (4 days for HBECs) as described above. Plates read with ATPlite and CC50 calculated as EC50s as described above. SI = CC50/EC50 within a cell line.

SMILES: O=C1Nc2ccccc2C(c2ccccc2)=N[C@@H]1Nc1nnc(-c2ncc(C(F)(F)F)cc2N2CCOCC2)o1 [EDP-938]
- EC50 ([1]; 168 h, RSV-B VR-955 MOI 0.1, 7 days): 64 ± 30 nM
- EC90 ([1]; RSV-B VR-955): 74 ± 33 nM
- EC50 [2]: 54 to 110 nM
- inhibition of viral RNA production by time of addition [3]: inhibited RNA production at all time points up to 8 hpi
- EC50 [4]: 28 ± 4 nM
- EC90 [4]: 40 ± 3 nM
- combination effect (Combination Index) ([5]; EDP-938 added to itself, CI 0.9–1.1 additivity, <0.9 synergy, >1.1 antagonism): additive; also recorded: additivity
- combination effect (Combination Index) ([5]; EDP-938 combined with ALS-8112, AZ-27, GS-5806 or palivizumab): moderate levels of synergy
- combination effect (Combination Index) ([5]; EDP-938 combined with ribavirin): additivity
- EC50 [6]: 28 to 72 nM
- EC50 ([7]; 120 h, RSV-A Long MOI 0.1, 5 days, read-out: EC50): 89 ± 16 nM
- EC90 ([7]; RSV-A Long): 91 ± 62 nM
- cytotoxicity [8]: no significant cytotoxicity
